# Laboratory results taken from patent US20250085295A1, “METHODS FOR MEASURING INTERACTIONS BETWEEN PROTEINS COMPRISING AN FC PORTION AND PARTICLES” (NANOTEMPER TECHNOLOGIES GMBH, priority 2023, published 2025).
# How the values were obtained:
# Trastuzumab [1] = assay: TRIC signal at 670 nm, dose-response of fluorescent peptide tracer vs Trastuzumab; format: binding; details: 2.4 nM peptide, Trastuzumab dilution series, IR laser heating 5 s, FIGS. 3 and 4
# Description: (§1) The fluorescent peptide tracer was dissolved in 100% DMSO to obtain stock solutions of 2.4 mM for FcIII and FcT. Subsequently, 16 or 24 point 1-to-1 dilution series of unlabeled Trastuzumab antibodies with stock concentrations of 825 µM were prepared leading to final assay concentrations of 2062.5 nM for Trastuzumab and a FCT and FcIII concentration of 2.4 nM. Samples were loaded into Dianthus 384-well plates (DI-P001A, NanoTemper Technologies) or polymer-coated borosilicate glass capillaries (Monolith NT.115 Premium Capillaries, MO-K025, NanoTemper Technologies). Measurements were taken with Nano Temper Software (MO.Control 2, DI.Control) by excitation at 591 nm and recording of fluorescence traces at 650 nm and 670 nm. For results showing TRIC results, simultaneous induction heat via an IR laser was induced and the thermophoretic behavior recorded for 5s.
# [2] = target: T1, Her2/ERBB2 Protein, Human, Recombinant (ECD, His Tag) (Homo sapiens, UniProt P04626); assay: Interaction of Her2 with labeled Trastuzumab in spectral shift (SpS); format: binding; details: 4 nM Trastuzumab, 2.4 nM tracer, Her2 up to 220 nM; FIGS. 5 and 7
# T1 construct: Her2/ERBB2 Protein, Human, Recombinant (ECD, His Tag); His tag; purchased Sino Biological 10004-H08H
# Description: (§2) The fluorescent peptide tracer was dissolved in 100% DMSO to obtain stock solutions of 2.4 mM for FcIII and FcT. Peptide tracers were mixed with 8 nM Trastuzumab and incubated for 15 min. Subsequently, 16 or 24 point 1-to-1 dilution series of Her2 were prepared and mixed 1:1 with prepared peptide: trastuzumab dilution, leading to final assay concentrations of 4 nM for Trastuzumab, 2.4 nM FcT and FcIII, and 220 nM as highest in-assay concentration of Her2. Samples were loaded into Dianthus 384-well plates (DI-P001A, NanoTemper Technologies) or polymer-coated borosilicate glass capillaries (Monolith NT.115 Premium Capillaries, MO-K025, NanoTemper Technologies). Measurements were taken with Nano Temper Software (MO.Control 2, DI.Control) by excitation at 591 nm and recording of fluorescence traces at 650 nm and 670 nm. For results showing TRIC results, simultaneous heat via an IR laser was induced and the thermophoretic behavior recorded for 5s.
# (§3) For NHS labeling of Trastuzumab, NHS labeling kit 2nd generation (NanoTemper Technologies) was used. In short, Trastuzumab was exchanged into NHS labeling buffer and mixed with NHS-NTT dye. After incubation in the dark for 30 min, unreacted dye was separated using a B-column provided with the kit. Eluting fractions containing 2.5 µM labeled Trastuzumab were collected and stored at −80° C.
# Trastuzumab [3] = assay: Spectral shift (SpS, 670/650 nm ratio) dose-response of fluorescent peptide tracer vs Trastuzumab; format: binding; details: for binding affinity of fluorescent peptide to Trastuzumab, spectral shift response (SpS): 2.4 nM peptide, Trastuzumab dilution series up to 2062.5 nM, excitation 591 nm, 650/670 nm, FIGS. 1 and 2
# Description: as §1
# To evaluate the importance of the right affinity for this labeling approach, also a fluorescent peptide tracer was designed based on previously published findings based on a combinatorial tetrapeptide library (Camperi et al., Biotechnol Lett (2003), 25:1545-1548). To this end, the tetrapeptide APAR, which was previously found to bind to Immunoglobulin G was synthesized with an N-terminal lysine to accommodate further conjugation with Cy5 dye. The resulting fluorescent peptide tracer Cy5-KAPAR (cf. SEQ ID NO: 9) was dissolved in 100% DMSO to obtain stock solutions of 4.96 mM. The stock solution was further diluted in PBS-P. Subsequently 24 point 1-to-1 dilution series of unlabeled Trastuzumab antibody with stock concentrations of 825 μM were prepared leading to final assay concentrations of 412 μM for Trastuzumab and a Cy5-KAPAR (cf. SEQ ID NO: 9) concentration of 2.5 nM. Samples were loaded into Dianthus 384-well plates (DI-P001A, NanoTemper Technologies). Measurements were taken with Nano Temper Software (DI.Control) by excitation at 591 nm and recording of fluorescence traces at 650 nm and 670 nm. […] Such affinities result in required assay concentrations of over 100 μM in ligand-binding assays, which can hardly be achieved due to antibody solubility and availability. Furthermore, only affinities lower than the used concentration of antibody could reliable be determined, severely limiting the approach.
# [4] = target: T1, Her2/ERBB2 Protein, Human, Recombinant (ECD, His Tag); assay: Interaction of Her2 with labeled Trastuzumab in TRIC 670 nm; format: binding; details: 4 nM Trastuzumab, 2.4 nM tracer, Her2 up to 220 nM; FIGS. 6 and 8
# Description: as §2, §3
# IgG antibody = details: literature DOI cited; read-out: affinity of Fc-binding peptide to IgG antibody; cited from earlier work
# [5] = Thermal unfolding analysis using Fc-peptide labeling (670/650 nm ratio, first derivative); format: physicochemical; details: free FcIII without antibody, heating 1° C./min; FIG. 14A, 14B
# Description: The fluorescent peptide tracer was dissolved in 100% DMSO to obtain stock solutions of 2.4 mM for FcIII. […] Samples were loaded into capillaries, excited at 591 nm and fluorescence was recorded at 650 and 670 nm. Samples were heated a rate of 1° C./min while recording fluorescence signals.
# IgA antibody = details: literature DOI cited; read-out: affinity of Fc-binding peptide to IgA antibody; cited from earlier work
substance,measurement,setting,value
"[Cyc(2,12)]NTTred-DCAWHLGELVWCT-OH [FcT]","binding affinity of fluorescent peptide to Trastuzumab, TRIC",Trastuzumab [1],Clear binding with nanomolar affinities
same,"binding of Her2 to Trastuzumab labeled with the peptide tracer, spectral shift dose-response",[2],clearly show the binding of Her2
same,"binding affinity of fluorescent peptide to Trastuzumab, spectral shift response (SpS)",Trastuzumab [3],Clear binding with nanomolar affinities
same,"binding of Her2 to Trastuzumab labeled with the peptide tracer, TRIC signal dose-response",[4],clearly show the binding of Her2
L-Pro DCAWHLGELVWCT D-Pro [FcBP2],Kd,IgG antibody,1.8 nM
KHRFNKD,Kd,IgG antibody,20 nM
"low affinity fluorescent peptide tracer, tetrapeptide APAR with N-terminal lysine conjugated with Cy5 (cf. SEQ ID NO: 9) [Cy5-KAPAR, Cy5-KAPAR-OH]",ratiometric change in the 670/650 nm fluorescence upon binding of Trastuzumab,"Trastuzumab [3]; 2.5 nM Cy5-KAPAR, Trastuzumab up to 412 μM",large ratiometric change
same,Kd,"Trastuzumab [3]; 2.5 nM Cy5-KAPAR, Trastuzumab up to 412 μM, spectral shift 670/650 nm, read-out: affinity to Trastuzumab (estimated, saturation not reached)",> 60000 nM
"[Cyc(2,12)]Cy5-DCAWHLGELVWCT-NH2 [FcIII]","thermal profile, unfolding events in the first derivative",[5],no distinct unfolding events
same,"binding affinity of fluorescent peptide to Trastuzumab, TRIC",Trastuzumab [1],Clear binding with nanomolar affinities
same,"binding of Her2 to Trastuzumab labeled with the peptide tracer, spectral shift dose-response",[2],clearly show the binding of Her2
same,"binding affinity of fluorescent peptide to Trastuzumab, spectral shift response (SpS)",Trastuzumab [3],Clear binding with nanomolar affinities
same,"binding of Her2 to Trastuzumab labeled with the peptide tracer, TRIC signal dose-response",[4],clearly show the binding of Her2
RRGW,Kd,IgG antibody,0.5 nM
CDCAWHLGELVWCTC [Fc-III-4C],Kd,IgG antibody,2.5 nM
HQVCLSYRGRPVCFST,Kd,IgA antibody,72 nM
DCAWHLGELVWCT [Fc-III],Kd,IgG antibody,16 to 25 nM
